From US20100298385A1, “PROTEIN KINASE INHIBITORS USEFUL FOR TREATMENT OF CANCERS” (priority 2007, published 2010) come the findings set out here.

Where only a bound is given, the exact number is not on record here.

Type in all cases: cell-based
For one experiment, the system named is A431. As to the kind of experiment: MTT test, inhibition of cell proliferation. Conditions: Homo sapiens, A-431, 72 hours. The procedure: (§1) Cell incubation: the cancer cells strains are incubated in RPMI 1640 with 10% FBS, grow along the wall at 37° C. under 5% CO2 incubator.
(§2) Sample solutions: First prepare material at 100 mM in DMSO, then diluted to DMSO 4.95% using 3% DMSO FBS solution.
(§3) MTT test: cancer cells are incubated at a density of 5×10^3 cells/well in 96 well cell Culture plate for 24 hours, then added different sample solutions for 72 hours. At the end of incubation, 5 mg/mL MTT 15 μL was added to each well and stayed for 4 hours, vacuumed the solution, added DMSO 150 μL, shaked for 10 minutes, tested at […] for the OD value in the spectrophotometer, and calculated the inhibition rate of cell proliferation.
(§4) Inhibition rate of cell proliferation=(control OD−sample OD)/control OD)*100%
(Tetrazolium dyes change colour on reduction, which living cells bring about.)

The test system of a further experiment is BGC-823. The experiment can be described thus: MTT test, inhibition of cell proliferation. Particulars: Homo sapiens, 72 hours. The procedure:
as §1, §2, §3, §4

The test system of a further experiment is KB. The experiment can be described thus: MTT test, inhibition of cell proliferation. Particulars: Homo sapiens, 72 h. The protocol:
as §1, §2, §3, §4

For another experiment, the system named is HL-60. The experiment can be described thus: MTT test, inhibition of cell proliferation. Conditions: Homo sapiens, 72 hours. The protocol: as §1, §2, §3, §4
The next experiment deals with A375s-2. As to the kind of experiment: MTT test, inhibition of cell proliferation. Conditions: A375-S2, 72 hours. The protocol: as §1, §2, §3, §4
The subject of the next experiment is K562. As to the kind of experiment: MTT test, inhibition of cell proliferation. Conditions: Homo sapiens, 72 hours. The protocol: as §1, §2, §3, §4
Another experiment has as its system Bel-7402. As to the kind of experiment: MTT test, inhibition of cell proliferation. Conditions: Homo sapiens, 72 hours. The protocol: as §1, §2, §3, §4
For the next experiment, the system named is Hela. The experiment can be described thus: MTT test, inhibition of cell proliferation. Particulars: Homo sapiens, 72 hours. The protocol:
as §1, §2, §3, §4

A further experiment has as its system U937. As to the kind of experiment: MTT test, inhibition of cell proliferation. Conditions: Homo sapiens, U-937, 72 hours. The procedure: as §1, §2, §3, §4
The next experiment concerns MCF-7. As to the kind of experiment: MTT test, inhibition of cell proliferation. Particulars: Homo sapiens, MCF7, 72 h. The procedure: as §1, §2, §3, §4
Another experiment deals with HepG-2. As to the kind of experiment: MTT test, inhibition of cell proliferation. Conditions: Homo sapiens, HepG2, 72 hours. The procedure:
as §1, §2, §3, §4

The subject of the next experiment is L929. The experiment can be described thus: MTT test, inhibition of cell proliferation. Conditions: Mus musculus, 72 hours. The protocol: as §1, §2, §3, §4
The subject of another experiment is A549. As to the kind of experiment: MTT test, inhibition of cell proliferation. Conditions: Homo sapiens, 72 hours. The procedure:
as §1, §2, §3, §4

The subject of a further experiment is cancer cells. The experiment can be described thus: MTT test, positive controls on the different cells. Conditions: at 0.4, 0.8, 1.6, 3.2, and 6.4 μm/L. The procedure: as §1, §2, §3, §4

By IC50 is commonly meant the midpoint of a concentration-inhibition curve. A higher IC50 goes with weaker potency. As to `CNC(=O)c1cc(Oc2ccc(CC(=O)Nc3ccc(Cl)c(C(F)(F)F)c3)cc2)ccn1` [Compound C, 4-(4-[(4-chloro-3-trifluoromethylphenylaminocarbonyl)-methyl]phenoxy)pyridin-2-carboxylic acid methylamide], the IC50 in the experiment on A431 was 11 to 30 µM; in the experiment with BGC-823, 11 to 30 µM; with KB (first listing (r12)), 31 to 50 µM; in the experiment with KB (second listing (r16)) it was 11 to 30 µM; in the experiment with HL-60 it was not above 10 µM; in the experiment with A375s-2 it was 11 to 30 µM. The IC50 in the experiment on K562 was 31 to 50 µM; with Bel-7402 it was not above 10 µM; in the experiment with Hela it was 11 to 30 µM; with U937 it was not above 10 µM; in the experiment on MCF-7 (MCF-7, first listing (r2)) it was 31 to 50 µM; in the experiment on MCF-7 (MCF-7, second listing (r6)), 11 to 30 µM. Besides, the IC50 fell in the range of 11 to 30 µM in the experiment on HepG-2, 31 to 50 µM in the experiment with L929 and 31 to 50 µM in the experiment with A549.
As for `CNC(=O)c1cc(Oc2ccc(NC(=O)Nc3nc(C)c(C(C)(C)C)s3)cc2)ccn1` [Compound A, 4-{4-[3-(5-tert-Butyl-4-methyl-thiazol-2-yl)-ureido]-phenoxy}-pyridine-2-carboxylic acid methylamide], the IC50 with A431 is 11 to 30 µM; in the experiment with BGC-823 it was 11 to 30 µM; in the experiment on KB (first listing (r12)) it was 11 to 30 µM; with KB (second listing (r16)), 11 to 30 µM; in the experiment on HL-60 it was 11 to 30 µM; in the experiment with A375s-2 it was 31 to 50 µM. For the same compound, the IC50 was 31 to 50 µM with K562; not above 10 µM in the experiment on Bel-7402; 31 to 50 µM in the experiment on Hela; 11 to 30 µM with U937; not above 10 µM with MCF-7 (MCF-7, first listing (r2)); not above 10 µM in the experiment on MCF-7 (MCF-7, second listing (r6)). Also, the IC50 in the experiment on HepG-2 was in the range of 11 to 30 µM; in the experiment on L929 it was 31 to 50 µM; in the experiment with A549 it was 31 to 50 µM.
Turning to `O=P1(N(CCCl)CCCl)NCCCO1` (centres unmarked) [CYC, cyclophosphamide], the “inhibition for the different cells” value in the experiment on cancer cells was “dose-dependent”.
For `CC(=O)O[C@H]1C(=O)[C@@]2(C)[C@H]([C@H](OC(=O)c3ccccc3)[C@]3(O)C[C@H](OC(=O)[C@H](O)[C@@H](NC(=O)c4ccccc4)c4ccccc4)C(C)=C1C3(C)C)[C@]1(OC(C)=O)CO[C@@H]1C[C@@H]2O` [Paclitaxel], in the experiment on cancer cells, the “inhibition for the different cells” value is listed as “dose-dependent”.
